In article PMC4102417 (PLoS Neglected Tropical Diseases, 2014) one finds activity and EC50 data, which are given here for 11 compounds.

The test system of test [1] is T. cruzi (Tulahuen strain). Description: microbe, parasite or virus in culture. As to conditions: Trypanosoma cruzi, TULAHUEN, Fibroblast; for activity at 10 µM: 120 h, read-out: T. cruzi % growth @ 10 uM (Amastigotes). Type of test: cell-based, Trypanosoma cruzi. On the procedure: Compounds were tested against T. cruzi (Tulahuen strain) stably expressing the beta-galactosidase gene as previously described. […] Fibroblasts were plated at a density of 2×10^3 per well in 96 well tissue culture plates. After 24 hours of incubation, 1×10^4 trypomastigotes/well were added to the fibroblasts and incubated for 4 hours before addition of the test compounds from the Spectrum Collection (10 µM final concentration). Cultures were incubated at 37°C for 5 days, then developed with chlorophenol red β-D-galactopyranoside as previously described. The percent inhibition is reported with standard deviation of the mean. […] Z-prime values were calculated for each 96-well plate based on positive (4 wells) and negative controls (4 wells).

The next test has as its system 3T3 fibroblast cells. The test can be described thus: cells. To be noted: Mus musculus, NIH3T3, 72 h, 10 uM, read-out: Mammalian (3T3) cell % growth at 10 uM. Format: cell-based, murine.

Where a name gives a salt, the structure may show the parent alone. Read-outs that look alike come from different tables or passages of the source.

With `CC(=O)OC1C(=O)C2(C)C(O)CC3OCC3(OC(C)=O)C2C(OC(=O)c2ccccc2)C2(O)CC(OC(=O)C(O)C(NC(=O)c3ccccc3)c3ccccc3)C(C)=C1C2(C)C` (centres unmarked) [PACLITAXEL, 4,12-bis(acetyloxy)-1,9-dihydroxy-15-{[2-hydroxy-3-phenyl-3-(phenylformamido)propanoyl]oxy}-10,14,17,17-tetramethyl-11-oxo-6-oxatetracyclo[11.3.1.0^{3,10}.0^{4,7}]heptadec-13-en-2-yl benzoate], the activity at 10 µM turned out to be 0.2% in test [1] (Table S1) and 58.1% in the test with 3T3 fibroblast cells (Table S1).
Take `C=CC(C1=CC(=O)C=CC1=O)c1ccccc1` (centres unmarked) [DALBERGIONE, 2-(1-phenylprop-2-en-1-yl)cyclohexa-2,5-diene-1,4-dione]: the values for the activity at 10 µM (in test [1] (Table S2); in the test with 3T3 fibroblast cells (Table S2)) were 12.4% and 97.5%, respectively.
By EC50 is commonly meant the concentration that produces a half-maximal response. Regarding `COc1c(C)c2c(c(O)c1CC=C(C)CCC(=O)O)C(=O)OC2` [MYCOPHENOLIC ACID, 6-(4-hydroxy-6-methoxy-7-methyl-3-oxo-1,3-dihydro-2-benzofuran-5-yl)-4-methylhex-4-enoic acid], the activity at 10 µM in test [1] (Table S2) worked out at 12.2%; in the test on 3T3 fibroblast cells (Table S2) it was 97.2%. In addition, the concentration for a half-maximal effect (EC50) in test [1] (Table S2, amastigotes, read-out: T. cruzi EC50) was determined as 320 nM.
As for `COc1ccc(-c2cc(=O)c3ccccc3o2)cc1OC` [3',4'-DIMETHOXYFLAVONE, 2-(3,4-dimethoxyphenyl)-4H-chromen-4-one], the activity at 10 µM in test [1] (Table S2) amounted to 24%; in the test with 3T3 fibroblast cells (Table S2), 86.4%.
For `CC(CC(O)C1OC1(C)C)C1CCC2(C)C3=CCC4C(C)(C)C(=O)CCC4(C)C3CCC12C` (centres unmarked) [NILOTICIN, 14-[4-(3,3-dimethyloxiran-2-yl)-4-hydroxybutan-2-yl]-2,6,6,11,15-pentamethyltetracyclo[8.7.0.0^{2,7}.0^{11,15}]heptadec-9-en-5-one], the activity at 10 µM in test [1] (Table S2) was determined as 2.2%; with 3T3 fibroblast cells (Table S2), 100%.
Regarding `N#Cc1nn(-c2c(Cl)cc(C(F)(F)F)cc2Cl)c(N)c1[S+]([O-])C(F)(F)F` (centres unmarked) [FIPRONIL, 5-amino-1-[2,6-dichloro-4-(trifluoromethyl)phenyl]-4-(trifluoromethane)sulfinyl-1H-pyrazole-3-carbonitrile], the figures for the activity at 10 µM (in test [1] (Table S2); in the test with 3T3 fibroblast cells (Table S2)) were 3.7% and 100%, respectively.
For `O=c1cc(-c2ccc(O)cc2)oc2cc(O)cc(O)c12` [APIGENIN, 5,7-dihydroxy-2-(4-hydroxyphenyl)-4H-chromen-4-one] the same measures were 17.7% and 73.6%.
As to `CC1CCC2(NC1)OC1CC3C4CCC5CC(O)CCC5(C)C4CCC3(C)C1C2C` (centres unmarked) [TOMATIDINE, 5',7,9,13-tetramethyl-5-oxaspiro[pentacyclo[10.8.0.0^{2,9}.0^{4,8}.0^{13,18}]icosane-6,2'-piperidine]-16-ol hydrochloride], the activity at 10 µM in test [1] (Table S2) stood at 8.5%; in the test on 3T3 fibroblast cells (Table S2) it was 100%.
For `COc1ccc2cc3[n+](cc2c1OC)CCc1cc2c(cc1-3)OCO2` [BERBERINE, 16,17-dimethoxy-5,7-dioxa-13$l^5-azapentacyclo[11.8.0.0^{2,10}.0^{4,8}.0^{15,20}]henicosa-1(21),2,4(8),9,13,15,17,19-octaen-13-ylium], the activity at 10 µM in test [1] (Table S2) is 4.1%; in the test on 3T3 fibroblast cells (Table S2), 75.8%.
In the same order, the values of `CN1CCC(=C2c3ccccc3CCc3sccc32)CC1` [PIZOTYLINE MALATE, 1-methyl-4-{6-thiatricyclo[8.4.0.0^{3,7}]tetradeca-1(14),3(7),4,10,12-pentaen-2-ylidene}piperidine; 2-hydroxybutanedioic acid] are 21.4% and 86.5%.
For the compound `CC(=O)OC1CC2C(C)(C)C(=O)CCC2(C)C2CCC3(C)C(c4ccoc4)OC(=O)C4OC43C12C` (centres unmarked) [DIHYDROGEDUNIN, 7-(furan-3-yl)-1,8,12,16,16-pentamethyl-5,15-dioxo-3,6-dioxapentacyclo[9.8.0.0^{2,4}.0^{2,8}.0^{12,17}]nonadecan-19-yl acetate], the figures for the activity at 10 µM (in test [1] (Table S2); in the test with 3T3 fibroblast cells (Table S2)) were 5.8% and 81.4%, respectively.
